From the supplement of paper PMC10307832

How the values were obtained:
Experiment in all cases: relative viability (nuclei count vs DMSO), 5 days (fraction); higher = more cells survive
Adavosertib + Linsitinib = compound: C=CCn1c(=O)c2cnc(Nc3ccc(N4CCN(C)CC4)cc3)nc2n1-c1cccc(C(C)(C)O)n1 [Adavosertib] + C[C@]1(O)C[C@@H](c2nc(-c3ccc4ccc(-c5ccccc5)nc4c3)c3c(N)nccn32)C1 [Linsitinib] (partner 1 µM)
Procedure, shortened: (§1)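 The day after seeding in 1536-well plates, lung cancer cell lines were treated by pin tool with a single drug, or with a fixed anchor-drug dose together with five library-drug doses (not always all listed) in √10 steps. After 5 days, a combined fix-and-stain solution (final 0.05% Triton X-100, 1% formaldehyde, 1 ug/ml Hoechst) was added. Nuclei counted on 4× images gave relative viability as treated counts over vehicle counts, reported as the median of duplicate plates.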

Adavosertib + Dasatinib = compound: C=CCn1c(=O)c2cnc(Nc3ccc(N4CCN(C)CC4)cc3)nc2n1-c1cccc(C(C)(C)O)n1 [Adavosertib] + Cc1nc(Nc2ncc(C(=O)Nc3c(C)cccc3Cl)s2)cc(N2CCN(CCO)CC2)n1 [Dasatinib] (partner 0.075 µM)
Procedure, shortened: as §1

Adavosertib + Pemetrexed = compound: C=CCn1c(=O)c2cnc(Nc3ccc(N4CCN(C)CC4)cc3)nc2n1-c1cccc(C(C)(C)O)n1 [Adavosertib] + Nc1nc2[nH]cc(CCc3ccc(C(=O)N[C@@H](CCC(=O)O)C(=O)O)cc3)c2c(=O)[nH]1 [Pemetrexed] (partner 0.2 µM)
Procedure, shortened: as §1

Nelarabine + Lapatinib = compound: COc1nc(N)nc2c1ncn2[C@@H]1O[C@H](CO)[C@@H](O)[C@@H]1O [Nelarabine] + CS(=O)(=O)CCNCc1ccc(-c2ccc3ncnc(Nc4ccc(OCc5cccc(F)c5)c(Cl)c4)c3c2)o1 [Lapatinib] (partner 2 µM)
Procedure, shortened: as §1

Cell Line | relative viability (Adavosertib + Linsitinib; first compound 0.01 µM) | relative viability (Adavosertib + Linsitinib; first compound 0.03162 µM) | relative viability (Adavosertib + Linsitinib; first compound 0.1 µM) | relative viability (Adavosertib + Linsitinib; first compound 0.3162 µM) | relative viability (Adavosertib + Dasatinib; first compound 0.01 µM) | relative viability (Adavosertib + Dasatinib; first compound 0.03162 µM) | relative viability (Adavosertib + Dasatinib; first compound 0.1 µM) | relative viability (Adavosertib + Dasatinib; first compound 0.3162 µM) | relative viability (Adavosertib + Pemetrexed; first compound 0.01 µM) | relative viability (Adavosertib + Pemetrexed; first compound 0.03162 µM) | relative viability (Adavosertib + Pemetrexed; first compound 0.1 µM) | relative viability (Adavosertib + Pemetrexed; first compound 0.3162 µM) | relative viability (Nelarabine + Lapatinib; first compound 0.01 µM) | relative viability (Nelarabine + Lapatinib; first compound 0.03162 µM) | relative viability (Nelarabine + Lapatinib; first compound 0.1 µM) | relative viability (Nelarabine + Lapatinib; first compound 0.3162 µM) | relative viability (Nelarabine + Lapatinib; first compound 1 µM)
SK-MES-1 | 1.03 | 1.02 | 1.1 | 0.835 | 0.334 | 0.392 | 0.27 | 0.193 | 0.958 | 0.916 | 0.754 | 0.338 | 0.432 | 0.544 | 0.456 | 0.563 | 0.555
NCI-H2170 |  |  |  |  | 0.522 | 0.48 | 0.608 | 0.389 | 0.282 | 0.248 | 0.271 | 0.218 | 0.284 | 0.232 | 0.262 | 0.293 | 0.28
NCI-H1648 |  |  |  |  |  |  |  |  | 0.595 | 0.719 | 0.814 | 0.483 |  |  |  |  | 
UMC-11 | 0.959 | 0.99 | 1.19 | 1.02 | 0.489 | 0.414 | 0.517 | 0.461 | 0.791 | 0.725 | 0.763 | 0.594 | 1.05 | 0.863 | 1.02 | 1.02 | 1.14
HCC-15 | 0.878 | 0.876 | 1.05 | 0.989 | 0.577 | 0.569 | 0.574 | 0.643 | 0.221 | 0.227 | 0.216 | 0.229 | 0.987 | 0.798 | 0.928 | 0.883 | 0.9
HCC-78 | 0.597 | 0.422 | 0.522 | 0.562 | 0.389 | 0.44 | 0.418 | 0.401 | 0.921 | 0.922 | 0.959 | 0.887 | 0.731 | 0.779 |  | 0.902 | 0.631
NCI-H647 | 1.12 | 1.04 | 1.28 | 0.454 | 0.2 | 0.21 | 0.259 | 0.107 | 0.155 | 0.159 | 0.141 | 0.123 | 1.37 | 0.807 | 1.11 | 1.34 | 1.14
NCI-H2009 | 1.23 | 1.24 | 1.24 | 1.2 | 0.318 | 0.294 | 0.297 | 0.178 | 1.03 | 0.987 | 1.04 | 0.775 | 1.04 | 1.03 | 0.869 | 1.07 | 1.03
NCI-H520 | 0.883 | 0.794 | 1.11 | 0.874 | 0.194 | 0.181 | 0.183 | 0.217 | 0.762 | 0.686 | 0.616 | 0.297 | 0.991 | 0.947 | 1.31 | 0.889 | 0.887
RERF-LC-KJ | 0.925 | 0.921 | 0.848 | 0.796 | 0.799 | 0.774 | 0.975 | 0.715 | 0.384 | 0.463 | 0.481 | 0.471 | 0.912 | 0.99 | 1.01 | 0.88 | 0.876
NCI-H441 | 0.552 | 0.5 | 0.496 | 0.329 | 0.5 | 0.511 | 0.575 | 0.396 | 0.235 | 0.265 | 0.275 | 0.225 |  |  |  |  | 
NCI-H1666 | 0.763 | 1.14 | 0.813 | 0.754 | 0.754 | 0.821 | 0.854 | 0.733 | 0.808 | 0.925 | 0.82 | 0.695 | 0.711 | 0.604 | 0.57 | 0.675 | 0.646
NCI-H1755 | 0.997 | 0.956 | 0.992 | 0.997 | 0.406 | 0.424 | 0.447 | 0.384 | 0.419 | 0.43 | 0.43 | 0.392 | 1.27 | 0.937 | 1.09 | 1.29 | 1.1
COR-L23 | 0.965 | 0.904 | 0.745 | 0.209 | 0.63 | 0.459 | 0.517 | 0.239 | 0.203 | 0.198 | 0.204 | 0.165 | 1.39 | 1.17 | 1.12 | 1.02 | 0.982
SK-LU-1 | 1.19 | 1.02 | 0.77 | 0.334 | 0.249 | 0.158 | 0.148 | 0.136 | 1.03 | 0.967 | 0.812 | 0.536 | 1.24 | 0.617 | 0.887 | 0.94 | 0.885
SW 900 |  |  |  |  |  | 0.607 | 0.645 | 0.36 | 0.457 | 0.484 | 0.492 | 0.443 |  |  |  |  | 
PC-3 [JPC-3] | 0.903 | 0.935 | 0.929 | 0.985 | 0.994 | 0.937 | 0.933 | 1.05 |  | 1.24 | 1.26 | 1.12 | 0.508 | 0.373 | 0.439 | 0.451 | 0.436
EKVX | 0.941 | 0.966 | 0.989 | 1.07 | 0.534 | 0.602 | 0.538 | 0.52 | 0.426 | 0.374 | 0.309 | 0.362 | 0.2 | 0.155 | 0.168 | 0.204 | 0.21
NCI-H322M |  | 0.789 | 0.982 | 0.535 | 0.238 | 0.225 | 0.247 | 0.255 | 0.593 | 0.625 | 0.52 | 0.469 | 0.653 | 0.581 | 0.529 | 0.604 | 0.602
NCI-H2087 | 0.906 | 1.11 | 1.07 | 0.87 | 0.901 | 0.786 | 0.893 | 0.845 | 0.644 | 0.634 | 0.67 | 0.644 | 1 | 1.02 | 1.09 | 1.07 | 1.32
